Measurements taken from patent US8637525B2, “Compounds for the reduction of beta-amyloid production” (Bristol-Myers Squibb Company, priority 2009, dated 2014).
Like-named read-outs stand apart in the source and are kept apart here.

System: Aβ1-42 production
Test: Cellular assay for inhibition of Aβ1-42 production (H4 APP751 SWE clone 8.20)
Type: cell-based
Conditions: H4 APP751 SWE clone 8.20 cells, 19 h incubation
Procedure, shortened: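 H4 cells stably expressing Swedish-mutant APP751 incubated with compound 19 h at 37 °C, 5% CO2. Secreted Aβ42 detected by HTRF with Aβ42 neoepitope antibody 565 (0.8 ng/well) and N-terminal 26D6 (75 ng/well), overnight at 4 °C. IC50 obtained by curve fitting.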

[1] = 19 h, class symbols, read-out: Activity Rating (Aβ42 cellular IC50)
[2] = 19 h, read-out: Activity Rating (Aβ42 cellular IC50), numeric value

Row | SMILES | IC50 [1] [nM] | IC50 [2] [nM] | further results
1 | COc1cc(Nc2nc3c(c(N4CCC5(C4)OCCO5)n2)CCC3c2ccccc2)ccc1-n1cnc(Cl)c1 (centres unmarked) [Example 205, N-(4-(4-chloro-1H-imidazol-1-yl)-3-methoxyphenyl)-7-phenyl-4-(1,4-dioxa-7-azaspiro[4.4]nonan-7-yl)-6,7-dihydro-5H-cyclopenta[d]pyrimidin-2-amine] | 10 to 100 | – | –
2 | COc1cc(Nc2nc3c(c(N4CCC(=O)C4)n2)CCC3c2ccccc2)ccc1-n1cnc(Cl)c1 (centres unmarked) [Example 206, 1-(2-(4-(4-chloro-1H-imidazol-1-yl)-3-methoxyphenylamino)-7-phenyl-6,7-dihydro-5H-cyclopenta[d]pyrimidin-4-yl)pyrrolidin-3-one] | – | 15 | –
3 | CNc1nc(Nc2ccc(C#N)cc2)nc2c1CN(S(C)(=O)=O)CC2c1ccc(F)cc1 (centres unmarked) [Example 207, 4-(8-(4-fluorophenyl)-4-(methylamino)-6-(methylsulfonyl)-5,6,7,8-tetrahydropyrido[4,3-d]pyrimidin-2-ylamino)benzonitrile] | 100 to 1000 | – | –
4 | CNc1nc(Nc2ccc(-n3cnc(C(F)F)c3)c(OC)c2)nc2c1CCC2c1ccc(F)cc1 (centres unmarked) [Example 208, N2-(4-(4-(difluoromethyl)-1H-imidazol-1-yl)-3-methoxyphenyl)-7-(4-fluorophenyl)-N4-methyl-6,7-dihydro-5H-cyclopenta[d]pyrimidine-2,4-diamine] | 10 to 100 | – | –
5 | CNc1nc(Nc2ccc(-c3cnn(C)c3)c(OC)c2)nc2c1CCC2c1ccccc1 (centres unmarked) [Example 209, N2-(3-methoxy-4-(1-methyl-1H-pyrazol-4-yl)phenyl)-N4-methyl-7-phenyl-6,7-dihydro-5H-cyclopenta[d]pyrimidine-2,4-diamine] | 1.5 to 9.9 | – | –
6 | COc1cc(Nc2nc3c(c(N(C)S(C)(=O)=O)n2)CCC3c2ccccc2)ccc1-n1cnc(Cl)c1 (centres unmarked) [Example 210, N-(2-(4-(4-chloro-1H-imidazol-1-yl)-3-methoxyphenylamino)-7-phenyl-6,7-dihydro-5H-cyclopenta[d]pyrimidin-4-yl)-N-methylmethanesulfonamide] | – | 61 | –
7 | COc1cc(Nc2nc(NS(C)(=O)=O)c3c(n2)C(c2ccccc2)CC3)ccc1-n1cnc(Cl)c1 (centres unmarked) [Example 211, N-(2-(4-(4-chloro-1H-imidazol-1-yl)-3-methoxyphenylamino)-7-phenyl-6,7-dihydro-5H-cyclopenta[d]pyrimidin-4-yl)-N-methanesulfonamide] | 1.5 to 9.9 | – | –
8 | COc1cc(Nc2nc3c(c(N(C)C(C)=O)n2)CCC3c2ccccc2)ccc1-n1cnc(Cl)c1 (centres unmarked) [Example 212, N-(2-(4-(4-chloro-1H-imidazol-1-yl)-3-methoxyphenylamino)-7-phenyl-6,7-dihydro-5H-cyclopenta[d]pyrimidin-4-yl)-N-methylacetamide] | – | 33 | –
9 | COc1cc(Nc2nc(Nc3cc(C(C)C)ccc3C)c3c(n2)C(c2ccccc2)CC3)ccc1-n1cnc(Cl)c1 (centres unmarked) [Example 214, N2-(4-(4-chloro-1H-imidazol-1-yl)-3-methoxyphenyl)-N4-(5-isopropyl-2-methylphenyl)-7-phenyl-6,7-dihydro-5H-cyclopenta[d]pyrimidine-2,4-diamine] | – | 77 | –
10 | Cc1ccc(C(C)C)cc1Nc1nc(Nc2ccc(C#N)cc2)nc2c1CCC2c1ccccc1 (centres unmarked) [Example 215A, 4-(4-(5-isopropyl-2-methylphenylamino)-7-phenyl-6,7-dihydro-5H-cyclopenta[d]pyrimidin-2-ylamino)benzonitrile] | > 1000 | – | –
11 | Cc1ccc(C(C)C)cc1Nc1nc(Nc2ccc(C#N)cc2)nc2c1CCC2c1ccccc1 (centres unmarked) [Example 215B, 4-(4-(5-isopropyl-2-methylphenylamino)-7-phenyl-6,7-dihydro-5H-cyclopenta[d]pyrimidin-2-ylamino)benzonitrile] | – | 173 | –
12 | CNc1nc(Nc2ccnc(C)c2)nc2c1CCC2c1ccccc1 (centres unmarked) [Example 216, N4-methyl-N2-(2-methylpyridin-4-yl)-7-phenyl-6,7-dihydro-5H-cyclopenta[d]pyrimidine-2,4-diamine] | > 1000 | – | –
13 | CNc1nc(Nc2cccc(OC)c2)nc2c1CCC2c1ccccc1 (centres unmarked) [Example 217, N2-(3-methoxyphenyl)-N4-methyl-7-phenyl-6,7-dihydro-5H-cyclopenta[d]pyrimidine-2,4-diamine] | > 1000 | – | –
14 | CNc1nc(Nc2ccc(F)cc2)nc2c1CCC2c1ccccc1 (centres unmarked) [Example 218, N2-(4-fluorophenyl)-N4-methyl-7-phenyl-6,7-dihydro-5H-cyclopenta[d]pyrimidine-2,4-diamine] | – | 3700 | –
15 | CNc1nc(Nc2cc(F)cc(F)c2)nc2c1CCC2c1ccccc1 (centres unmarked) [Example 219, N2-(3,5-difluorophenyl)-N4-methyl-7-phenyl-6,7-dihydro-5H-cyclopenta[d]pyrimidine-2,4-diamine] | > 1000 | – | –
16 | CNc1nc(Nc2ccc(C#N)cc2)nc2c1CCC2c1ccccc1 (centres unmarked) [Example 227, 4-(4-(methylamino)-7-phenyl-6,7-dihydro-5H-cyclopenta[d]pyrimidin-2-ylamino)benzonitrile] | – | – | IC50 (read-out: Activity Rating (Aβ42 cellular IC50), numeric value): 12 nM

Continued, in another order:

Row | IC50 [1] [nM] | IC50 [2] [nM] | SMILES | further results
17 | – | 550 | CNc1nc(Nc2ccc(Cl)c(OC)c2)nc2c1CCC2c1ccccc1 (centres unmarked) [Example 220, N2-(4-chloro-3-methoxyphenyl)-N4-methyl-7-phenyl-6,7-dihydro-5H-cyclopenta[d]pyrimidine-2,4-diamine] | –
18 | > 1000 | – | CNc1nc(Nc2ccc(Br)cc2OC)nc2c1CCC2c1ccccc1 (centres unmarked) [Example 221, N2-(4-bromo-2-methoxyphenyl)-N4-methyl-7-phenyl-6,7-dihydro-5H-cyclopenta[d]pyrimidine-2,4-diamine] | –
19 | > 1000 | – | CNc1nc(Nc2ccc(F)c(OC)c2)nc2c1CCC2c1ccccc1 (centres unmarked) [Example 222, N2-(4-fluoro-3-methoxyphenyl)-N4-methyl-7-phenyl-6,7-dihydro-5H-cyclopenta[d]pyrimidine-2,4-diamine] | –
20 | – | 11000 | CNc1nc(Nc2cncnc2)nc2c1CCC2c1ccccc1 (centres unmarked) [Example 223, N4-methyl-7-phenyl-N2-(pyrimidin-5-yl)-6,7-dihydro-5H-cyclopenta[d]pyrimidine-2,4-diamine] | –
21 | > 1000 | – | CNc1nc(Nc2ccncc2)nc2c1CCC2c1ccccc1 (centres unmarked) [Example 224, N4-methyl-7-phenyl-N2-(pyridin-4-yl)-6,7-dihydro-5H-cyclopenta[d]pyrimidine-2,4-diamine] | –
22 | – | 18 | CNc1nc(Nc2ccc(C#N)cc2)nc2c1CCC2c1ccccc1 (centres unmarked) [Example 225, 4-(4-(methylamino)-7-phenyl-6,7-dihydro-5H-cyclopenta[d]pyrimidin-2-ylamino)benzonitrile] | –
23 | 100 to 1000 | – | CNc1nc(Nc2ccc(C#N)cc2)nc2c1CCC2c1ccccc1 (centres unmarked) [Example 226, 4-(4-(methylamino)-7-phenyl-6,7-dihydro-5H-cyclopenta[d]pyrimidin-2-ylamino)benzonitrile] | –
24 | > 1000 | – | CNc1nc(Nc2ccccc2C#N)nc2c1CCC2c1ccccc1 (centres unmarked) [Example 228, 2-(4-(methylamino)-7-phenyl-6,7-dihydro-5H-cyclopenta[d]pyrimidin-2-ylamino)benzonitrile] | –
25 | > 1000 | – | CNc1nc(Nc2ccc(C#N)c3ccccc23)nc2c1CCC2c1ccccc1 (centres unmarked) [Example 229, 4-(4-(methylamino)-7-phenyl-6,7-dihydro-5H-cyclopenta[d]pyrimidin-2-ylamino)-1-naphthonitrile] | –
26 | – | 42 | CNc1nc(Nc2ccc(C#N)nc2)nc2c1CCC2c1ccccc1 (centres unmarked) [Example 230, 5-(4-(methylamino)-7-phenyl-6,7-dihydro-5H-cyclopenta[d]pyrimidin-2-ylamino)picolinonitrile] | –
